Here are results for 13 compounds from US20240342292A1, “Compounds for the Degradation of EGFR Kinase” (BeiGene Switzerland GmbH, priority 2021, published 2024).

The structures appear in SMILES notation.

As usually defined, the DC50 is the concentration giving 50% degradation. Read a high DC50 as a less potent degrader. Usually Dmax stands for the greatest extent of degradation seen. Read a low Dmax as shallow degradation.

Assay [1] has as its system Del19/T790M/C797S EGFR. The assay can be described thus: EGFR degradation HTRF assay in H1975-clone #28 (DTC) cells. Type of assay: cell-based. As to conditions: H1975 # 28 DTC (Del19/T790M/C797S), 16h treatment; for DC50: HTRF; for Dmax (%): maximum percentage of degradation. A digest of the protocol: (§1)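 H1975 clones with endogenous EGFR knocked out and lentivirally expressed mutant EGFR treated 16 h at 37 °C with compounds, 8 doses from 10 uM, 5-fold dilutions, 0.2% DMSO. Lysates read by HTRF (665/620 nm) overnight; DC50 from four-parameter fit.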
Background: Time-resolved FRET reads energy transfer from a long-lived donor to a nearby acceptor.

Assay [2] deals with T1, L858R/T790M/C797S EGFR (Homo sapiens, UniProt P00533, C797S/L858R/T790M).
T1 construct: expressed in transfected cells; host or cells: H1975 clone #25 (lentiviral over-expression, endogenous EGFR knocked out by sgRNA)
As to the kind of experiment: EGFR degradation HTRF assay in H1975-clone #25 (LTC) cells. Type of assay: cell-based. Particulars: 16h treatment; for DC50: H1975 # 25-LTC (L858R/T790M/C797S), HTRF; for Dmax: NCI-H1975, H1975 # 25-LTC (L858R/T790M/C797S), maximum percentage of degradation. Put shortly: as §1

T1 sequence (P00533 25-1210 T790M/C797S/L858R): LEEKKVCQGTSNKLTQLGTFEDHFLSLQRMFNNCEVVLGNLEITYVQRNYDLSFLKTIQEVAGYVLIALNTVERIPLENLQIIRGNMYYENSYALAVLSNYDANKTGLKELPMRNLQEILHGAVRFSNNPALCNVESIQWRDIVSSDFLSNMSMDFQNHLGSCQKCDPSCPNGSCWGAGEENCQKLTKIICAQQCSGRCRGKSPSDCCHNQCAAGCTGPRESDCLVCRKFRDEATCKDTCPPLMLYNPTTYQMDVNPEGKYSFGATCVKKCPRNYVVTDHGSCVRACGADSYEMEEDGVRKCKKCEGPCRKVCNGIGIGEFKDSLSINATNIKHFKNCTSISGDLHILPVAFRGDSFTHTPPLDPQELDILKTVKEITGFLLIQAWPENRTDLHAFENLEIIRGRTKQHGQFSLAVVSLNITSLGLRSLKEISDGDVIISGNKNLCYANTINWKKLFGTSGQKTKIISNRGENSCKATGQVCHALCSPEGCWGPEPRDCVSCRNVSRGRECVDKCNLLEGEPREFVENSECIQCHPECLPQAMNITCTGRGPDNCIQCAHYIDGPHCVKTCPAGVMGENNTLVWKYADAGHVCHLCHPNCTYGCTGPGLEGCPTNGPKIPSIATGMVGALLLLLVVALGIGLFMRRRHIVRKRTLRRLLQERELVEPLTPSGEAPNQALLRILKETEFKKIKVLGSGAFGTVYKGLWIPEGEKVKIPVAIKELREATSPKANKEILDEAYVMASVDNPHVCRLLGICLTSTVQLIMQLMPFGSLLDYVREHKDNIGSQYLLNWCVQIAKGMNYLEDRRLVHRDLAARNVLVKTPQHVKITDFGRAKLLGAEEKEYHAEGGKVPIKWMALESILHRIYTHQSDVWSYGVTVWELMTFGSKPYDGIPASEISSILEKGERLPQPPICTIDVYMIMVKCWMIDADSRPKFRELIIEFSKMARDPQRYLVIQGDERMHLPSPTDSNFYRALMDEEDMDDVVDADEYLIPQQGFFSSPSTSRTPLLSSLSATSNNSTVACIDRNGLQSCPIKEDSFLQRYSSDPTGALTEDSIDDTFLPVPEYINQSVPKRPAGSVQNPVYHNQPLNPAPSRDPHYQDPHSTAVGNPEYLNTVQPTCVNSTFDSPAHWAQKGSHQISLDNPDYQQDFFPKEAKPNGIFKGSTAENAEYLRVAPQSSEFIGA

With `Cc1cc2cc(n1)-c1cnn(C)c1OCCC[C@@H](C)CN1/C(=N/C2=O)Nc2ccc(CN(C)[C@H]3CCCN(C(=O)[C@@H]4CCN(c5cc(F)c([C@H]6CCC(=O)NC6=O)c(F)c5)C4)C3)cc21` [Example 319, (R)-3-(2,6-difluoro-4-((R)-3-((S)-3-(methyl(((R,E)-1^1,2^6,7-trimethyl-3-oxo-5^2,5^3-dihydro-1^1H,5′ H-11-oxa-4-aza-5(2,1)-benzo[d]imidazola-2(2,4)-pyridina-1(4,5)-pyrazolacycloundecaphane-5^6-yl)methyl)amino)piperidine-1-carbonyl)pyrrolidin-1-yl)phenyl)piperidine-2,6-dione], in assay [1], the DC50 was 0.643 nM and the “Dmax (%)” value was 74.25%. In assay [2], this compound had a 50% degradation concentration (DC50) of 1.26 nM and a Dmax of 83.4%.
As to `Cc1cc2cc(n1)-c1cnn(C)c1OCCC[C@@H](C)CN1/C(=N/C2=O)Nc2ccc(C(=O)N3CC(N(C)CCc4cc(F)c([C@H]5CCC(=O)NC5=O)c(F)c4)C3)cc21` [Example 306, (R)-3-(2,6-difluoro-4-(2-(methyl(1-((R,E)-1^1,2^6,7-trimethyl-3-oxo-5^2,5^3-dihydro-1^1H,5^1H-11-oxa-4-aza-5(2,1)-benzo[d]imidazola-2(2,4)-pyridina-1(4,5)-pyrazolacycloundecaphane-5^6-carbonyl)azetidin-3-yl)amino)ethyl)phenyl)piperidine-2,6-dione], in assay [1], the DC50 was found to be 0.614 nM and the “Dmax (%)” value came out at 63.09%. In assay [2], this compound displayed a 50% degradation concentration (DC50) of 0.742 nM and a Dmax of 84.3%.
The corresponding values for `Cc1cc2cc(n1)-c1cnn(C)c1OCCC[C@@H](C)CN1/C(=N/C2=O)Nc2ccc(C(=O)N(C)CC(F)(F)C3CCN(CCc4cc(F)c([C@H]5CCC(=O)NC5=O)c(F)c4)CC3)cc21` [Example 275, (R,E)-N-(2-(1-(4-((R)-2,6-dioxopiperidin-3-yl)-3,5-difluorophenethyl)piperidin-4-yl)-2,2-difluoroethyl)-N,1^1,2^6,7-tetramethyl-3-oxo-5^2,5^3-dihydro-1^1H,5^1H-11-oxa-4-aza-5(2,1)-benzo[d]imidazola-2(2,4)-pyridina-1(4,5)-pyrazolacycloundecaphane-5^6-carboxamide] are 0.798 nM, 78.92%, 1.01 nM and 88.9%.
The corresponding values for `Cc1cc2cc(n1)-c1cnn(C)c1OCCC[C@@H](C)CN1/C(=N/C2=O)Nc2ccc(N3CCC(N4CCN(c5cc(F)c([C@H]6CCC(=O)NC6=O)c(F)c5)CC4=O)CC3)cc21` [Example 450, (R)-3-(2,6-difluoro-4-(3-oxo-4-(1-((R,E)-1^1,2^6,7-trimethyl-3-oxo-5^2,5^3-dihydro-1^1H,5^1H-11-oxa-4-aza-5(2,1)-benzo[d]imidazola-2(2,4)-pyridina-1(4,5)-pyrazolacycloundecaphane-5^6-yl)piperidin-4-yl)piperazin-1-yl)phenyl)piperidine-2,6-dione] are 0.647 nM, 83.01%, 0.678 nM and 88.7%.
The corresponding values for `Cc1cc2cc(n1)-c1cnn(C)c1OCCCCCN1/C(=N/C2=O)Nc2ccc(C(=O)N(C)C3CCN(CCc4cc(F)c([C@H]5CCC(=O)NC5=O)c(F)c4)CC3)cc21` [Example 238, (R,E)-N-(1-(4-(2,6-dioxopiperidin-3-yl)-3,5-difluorophenethyl)piperidin-4-yl)-N,1^1,2^6-trimethyl-3-oxo-5^2,5^3-dihydro-1^1H,5^1H-11-oxa-4-aza-5(2,1)-benzo[d]imidazola-2(2,4)-pyridina-1(4,5)-pyrazolacycloundecaphane-5^6-carboxamide] are 0.565 nM, 83.62%, 0.602 nM and 93.2%.
With `Cc1cc2cc(n1)-c1cnn(C)c1OCCC[C@@H](C)CN1/C(=N/C2=O)Nc2ccc(N3CCC(C(=O)N4CCC(Nc5cc(F)c([C@H]6CCC(=O)NC6=O)c(F)c5)CC4)CC3)cc21` [Example 402, (R)-3-(2,6-difluoro-4-((1-(1-((R,E)-1^1,2^6,7-trimethyl-3-oxo-5^2,53-dihydro-1^1H,5^1H-11-oxa-4-aza-5(2,1)-benzo[d]imidazola-2(2,4)-pyridina-1(4,5)-pyrazolacycloundecaphane-5^6-yl)piperidine-4-carbonyl)piperidin-4-yl)amino)phenyl)piperidine-2,6-dione], in assay [1], the DC50 was found to be 0.525 nM and the “Dmax (%)” value is on record as 82.56%. In assay [2], this compound returned a DC50 of 0.633 nM and a maximal degradation (Dmax) of 88.3%.
For the compound `Cc1cc2cc(n1)-c1cnn(C)c1OCCC[C@@H](C)CN1/C(=N/C2=O)Nc2ccc(N3CCN(CC4CN(c5cc(F)c([C@H]6CCC(=O)NC6=O)c(F)c5)C4)[C@@H](C#N)C3)cc21` [Example 423, (R)-1-((1-(4-((R)-2,6-dioxopiperidin-3-yl)-3,5-difluorophenyl)azetidin-3-yl)methyl)-4-((R,E)-1^1,2^6,7-trimethyl-3-oxo-5^2,5^3-dihydro-1^1H,5^1H-1l-oxa-4-aza-5(2,1)-benzo[d]imidazola-2(2,4)-pyridina-1(4,5)-pyrazolacycloundecaphane-5^6-yl)piperazine-2-carbonitrile], in assay [1], the DC50 stood at 0.655 nM and the “Dmax (%)” value stood at 67.20%. In assay [2], this compound returned a 50% degradation concentration (DC50) of 1.41 nM and a maximal degradation (Dmax) of 78.8%.
For the compound `Cc1cc2cc(n1)-c1cnn(C)c1OCCC[C@@H](C)CN1/C(=N/C2=O)Nc2ccc(CN3CCN(C(=O)[C@@H]4CCN(c5cc(F)c([C@H]6CCC(=O)NC6=O)c(F)c5)C4)C[C@@H]3C)cc21` [Example 99], in assay [1], it took 0.7 nM to reach half-maximal degradation (DC50) and the “Dmax (%)” value amounted to 75.6%. Moreover, in assay [2], the 50% degradation concentration (DC50) is 1.4 nM and the Dmax is 82.7%.
Take `Cc1cc2cc(n1)-c1cnn(C)c1OCCC[C@@H](C)CN1/C(=N/C2=O)Nc2ccc(C(=O)N3CCC(C4CN(CCc5cc(F)c([C@H]6CCC(=O)NC6=O)c(F)c5)C4)CC3)cc21` [Example 312, (R)-3-(2,6-difluoro-4-(2-(3-(1-((R,E)-1^1,2^6,7-trimethyl-3-oxo-5^2,5^3-dihydro-1^1H,5^1H-11-oxa-4-aza-5(2,1)-benzo[d]imidazola-2(2,4)-pyridina-1(4,5)-pyrazolacycloundecaphane-5^6-carbonyl)piperidin-4-yl)azetidin-1-yl)ethyl)phenyl)piperidine-2,6-dione]: in assay [1], the DC50 worked out at 0.689 nM and the “Dmax (%)” value came to 47.95%. Further, in assay [2], it took 0.906 nM to reach half-maximal degradation (DC50) and the Dmax came to 85.8%.
On to `CO[C@@H]1CN(CCc2cc(F)c([C@H]3CCC(=O)NC3=O)c(F)c2)CC[C@H]1N(C)C(=O)c1ccc2c(c1)N1C[C@H](C)CCCOc3c(cnn3C)-c3cc(cc(C)n3)C(=O)/N=C/1N2` [Example 254, (R,E)-N—((3R,4R)-1-(4-((R)-2,6-dioxopiperidin-3-yl)-3,5-difluorophenethyl)-3-methoxypiperidin-4-yl)-N,1^1,2^6,7-tetramethyl-3-oxo-5^2,5^3-dihydro-1^1H,5^1H-11-oxa-4-aza-5(2,1)-benzo[d]imidazola-2(2,4) -pyridina-1(4,5)-pyrazolacycloundecaphane-5^6-carboxamide], for which, in assay [1], it took 0.624 nM to reach half-maximal degradation (DC50) and the “Dmax (%)” value was determined as 86.3%. In assay [2], this compound displayed a DC50 of 0.91 nM and a Dmax of 91.2%.
As to `Cc1cc2cc(n1)-c1cnn(C)c1OCCC[C@@H](C)CN1/C(=N/C2=O)Nc2ccc(N3CCN(C4CCN(c5cnc([C@H]6CCC(=O)NC6=O)c(F)c5)CC4)CC3=O)cc21` (single isomer, unassigned) [Example 460], in assay [1], the DC50 was determined as 0.629 nM and the “Dmax (%)” value is on record as 75.27%. Moreover, in assay [2], it took 0.431 nM to reach half-maximal degradation (DC50) and the maximal degradation (Dmax) came out at 89.6%.
Consider `Cc1cc2cc(n1)-c1cnn(C)c1OCCC[C@H](C)CN1/C(=N/C2=O)Nc2c(C)cc(CN3CCN(C(=O)C4CN(c5cc(F)c([C@H]6CCC(=O)NC6=O)c(F)c5)C4)CC3)cc21` [Example 154, (R)-3-(2,6-difluoro-4-(3-(4-(((S,E)-11,26,54,7-tetramethyl-3-oxo-5^2,5^1-dihydro-1^1H,5^1H-11-oxa-4-aza-5(2,1)-benzo[d]imidazola-2(2,4)-pyridina-1(4,5)-pyrazolacycloundecaphane-5^6-yl)methyl)piperazine-1-carbonyl)azetidin-1-yl)phenyl)piperidine-2,6-dione], for which, in assay [1], the 50% degradation concentration (DC50) was found to be 0.994 nM and the “Dmax (%)” value is listed as 78.94%. In assay [2], half-maximal degradation (DC50) was put at 0.998 nM and the greatest degradation seen (Dmax) amounted to 79.4%.
In the same order, the values of `Cc1cc2cc(n1)-c1cnn(C)c1OCCC[C@@H](C)CN1/C(=N/C2=O)Nc2ccc(C(=O)N[C@@H]3CCN(CCc4cc(F)c([C@H]5CCC(=O)NC5=O)c(F)c4)[C@H](C)C3)cc21` [Example 269, (R,E)-N—((2R,4R)-1-(4-((R)-2,6-dioxopiperidin-3-yl)-3,5-difluorophenethyl)-2-methylpiperidin-4-yl)-1^1,2^6,7-trimethyl-3-oxo-5^2,5^3-dihydro-1^1H,5^1H-11-oxa-4-aza-5(2,1)-benzo[d]imidazola-2(2,4)-pyridina-1(4,5)-pyrazolacycloundecaphane-5^6-carboxamide] are 0.638 nM, 82.6%, 0.316 nM and 92.7%.
